Measured values reported in US20040097420A1, “Proteasome regulation of NF-kB activity” (Harvard College, priority 1994, published 2004).
Non-standard residues stand in square brackets, D forms with d. Residues, ends and D or L forms follow the SMILES beside them. *: point of attachment. Tyr(3,5-I2) = N[C@@H](Cc1cc(I)c(O)c(I)c1)C(=O)O; 1Nal = N[C@@H](Cc1cccc2ccccc12)C(=O)O; 2Nal = N[C@@H](Cc1ccc2ccccc2c1)C(=O)O; hPhe = N[C@@H](CCc1ccccc1)C(=O)O; tBuAla = CC(C)(C)C[C@H](N)C(=O)O; Nle = CCCC[C@H](N)C(=O)O; Pra = C#CC[C@H](N)C(=O)O; Nva = CCC[C@H](N)C(=O)O; Abu = CC[C@H](N)C(=O)O; Cbz = O=C(OCc1ccccc1)*

Columns and labels:
[1] = target: T1, 26S proteasome (Oryctolagus cuniculus, UniProt G1T4Q9); assay: Inhibition of the 26S proteasome (kinetic experiments, Ki); format: biochemical; conditions: Rabbit muscle; substrate Suc-LLVY-AMC; [Mg:ATP] = 2 mM
T1 sequence (G1T4Q9 1-263): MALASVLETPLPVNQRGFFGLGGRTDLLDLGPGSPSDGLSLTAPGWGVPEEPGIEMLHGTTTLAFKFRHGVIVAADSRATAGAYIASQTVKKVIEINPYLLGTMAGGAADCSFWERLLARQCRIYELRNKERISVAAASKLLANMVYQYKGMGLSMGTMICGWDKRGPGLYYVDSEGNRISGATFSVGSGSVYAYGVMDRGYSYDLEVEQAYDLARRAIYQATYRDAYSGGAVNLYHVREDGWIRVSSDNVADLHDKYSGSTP
Text: (§1) Tables I-III summarize results from kinetic experiments that measured the inhibition of the 20S and 26S proteasomes, as well as cathepsin B and calpain. In these tables, Ki values are reported, which are dissociation constants for the equilibrium that is established when enzyme and inhibitor interact to form the enzyme:inhibitor complex.
(§2) The substances and assay conditions are briefly summarized in the footnotes to Table I. MG 101 and MG 102, also known as Calpain Inhibitor I and II, were purchased from Calbiochem as catalogue products.

[2] = target: calpain, 80 kD catalytic subunit; assay: Inhibition of calpain (Ki); format: biochemical; conditions: Rabbit muscle, substrate Suc-LLVY-AMC, [CaCl2] = 1 mM, [DTT] = 2 mM, pH 7.8, 20° C.
Text: as §1

[3] = target: T2, 20S Proteasome (Oryctolagus cuniculus, UniProt G1T4Q9); assay: Inhibition of the 20S proteasome (kinetic experiments, Ki); format: biochemical, Rabbit; set-up: Ki 20 S; substrate Suc-LLVY-AMC; conditions: Rabbit muscle, SDS-activated; substrate Suc-LLVY-AMC
T2 sequence (G1T4Q9 1-263): T1 sequence (G1T4Q9 1-263)
Text: as §1, §2
(§3) Table V summarizes data for the inhibition of the 20S proteasome by various tripeptide aldehyde inhibitors.

[4] = target: T3, cathepsin B (Bos taurus, UniProt P07688); assay: Inhibition of cathepsin B (Ki); format: biochemical; conditions: Bovine spleen; substrate Z-RR-AMC; [DTT] = 2 mM, [EDTA] = 5 mM, pH 5.5, 37° C.; read-out: Ki Cat B
T3 construct: Bovine spleen; Substrate: Z-RR-AMC; from tissue; host or cells: bovine spleen
Text: as §1

[5] = test system: PC12 cells; conditions: Tsubuki et al. (1993); cited from earlier work
[6] = target: T4, 20S Proteasome ± SDS (Oryctolagus cuniculus, UniProt G1T4Q9); assay: MG 101 inhibition of 20S proteasome with SDS (Table IV); format: biochemical; conditions: enzyme preparation: 20S Proteasome ± SDS
T4 sequence (G1T4Q9 1-263): T1 sequence (G1T4Q9 1-263)

[7] = target: T2, 20S Proteasome; assay: MG 101 inhibition of muscle 20S proteasome (Table IV); format: biochemical; conditions: enzyme preparation: 20S Proteasome (muscle)
[8] = target: T5, 20S Proteasome + Muscle 180 kDa Activator (Oryctolagus cuniculus, UniProt G1T4Q9); assay: MG 101 inhibition of 20S proteasome + muscle 180 kDa activator (Table IV); format: biochemical; conditions: enzyme preparation: 20S Proteasome + Muscle 180 kDa Activator
T5 sequence (G1T4Q9 1-263): T1 sequence (G1T4Q9 1-263)

[9] = target: T6, chymotrypsin-like activity of the proteasome (UniProt Q32KL2); conditions: slow binding inhibitors; Vinitsky et al., Biochemistry 31:9421-9428 (1992); cited from earlier work
T6 sequence (Q32KL2 1-263): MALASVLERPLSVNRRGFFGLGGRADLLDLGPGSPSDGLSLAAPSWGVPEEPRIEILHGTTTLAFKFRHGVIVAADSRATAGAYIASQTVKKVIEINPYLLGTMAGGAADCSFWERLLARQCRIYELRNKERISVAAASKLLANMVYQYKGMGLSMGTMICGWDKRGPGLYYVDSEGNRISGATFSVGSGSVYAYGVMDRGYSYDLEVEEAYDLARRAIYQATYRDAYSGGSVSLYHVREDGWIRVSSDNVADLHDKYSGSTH

[10] = target: T7, 26S Proteasome Complex (Oryctolagus cuniculus, UniProt G1T4Q9); assay: MG 101 inhibition of muscle 26S proteasome complex (Table IV); format: biochemical; conditions: enzyme preparation: 26S Proteasome Complex (muscle)
T7 sequence (G1T4Q9 1-263): T1 sequence (G1T4Q9 1-263)

[11] = test system: p60Tth processing by proteasome; assay: In vitro processing of p60Tth with purified proteasomes / extract; format: biochemical; conditions: processing reaction with purified 20/26S proteasomes or fraction II and Pr−(II) extract
Protocol: The p60Tth precursor (or p105) was translated in wheat germ extract. The substrate protein was mixed with HeLa cell cytoplasmic extract (S100) in a processing buffer containing 12 mM Tris, pH 7.5, 60 mM KCl, 20 mM creatine phosphate, 3.5 mM MgCl2 and 1 mM ATP. After incubation at 30° C for one hour, the reaction mixtures were subjected to immunoprecipitation with anti-p50 Ab and the proteins were resolved by SDS-PAGE. In the Apyrase treated sample, the p60 was incubated with 10 U of enzyme at 37° C. for 30 minutes to inactivate residual ATP in the wheat germ extract before adding the HeLa cell S100.
Increasing amounts of purified 20/26S proteasomes or a proteasome-enriched fraction from reticulocyte lysate, fraction II, were added alone or were combined with Pr^−(II) extract in a processing reaction (see Example 4). In addition, processing was inhibited by ATPγS, a non-hydrolyzable analogue of ATP that allows ubiquitination but inhibits proteasome function (lanes 3-5).

[12] = target: T8, 20S proteasome (Oryctolagus cuniculus, UniProt G1T4Q9); assay: Inhibition of the 20S proteasome (kinetic experiments, Ki); format: biochemical, Rabbit; conditions: Table V, miscellaneous tripeptide aldehydes; 20S proteasome
T8 sequence (G1T4Q9 60-263): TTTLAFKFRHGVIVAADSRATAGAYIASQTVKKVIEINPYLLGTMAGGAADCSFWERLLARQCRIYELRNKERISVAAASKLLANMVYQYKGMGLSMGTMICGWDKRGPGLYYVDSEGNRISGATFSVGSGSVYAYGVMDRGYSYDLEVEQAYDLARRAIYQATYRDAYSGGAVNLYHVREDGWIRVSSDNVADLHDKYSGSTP
Text: as §1, §2, §3

Structure (SMILES)	Ki [1] [nM]	Ki [2] [nM]	Ki [3] [nM]	Ki [4] [nM]	other results
CC(C)C[C@H](NC(=O)OCc1ccccc1)C(=O)N[C@@H](CC(C)C)C(=O)N[C@H](C=O)C(C)C [MG 120] (Cbz-Leu-Leu-Val-aldehyde)	560	14	94	36	
CC(C)C[C@@H](C=O)NC(=O)[C@H](CC(C)C)NC(=O)[C@H](CC(C)C)NC(=O)OCc1ccccc1 [benzyloxycarbonyl(Z)-Leu-Leu-leucinal, Z-L-Leucine-L-Leucine-L-Leucinal] (Cbz-Leu-Leu-Leu-aldehyde)					optimal concentration initiating neurite outgrowth [5]: 30 nM
CCCC[C@@H](C=O)NC(=O)[C@H](CC(C)C)NC(=O)OCc1ccccc1 [MG 105, Z-Leu-Nle-H, reference compound]			15000		
CC(C)C[C@H](NC(=O)OCc1ccccc1)C(=O)N[C@@H](CC(C)C)C(=O)N[C@H](C=O)Cc1ccc2ccccc2c1 [MG 121, Z-Leu-Leu-Nal-H] (Cbz-Leu-Leu-[2Nal]-aldehyde)	70	62	25	73	
CC[C@@H](C=O)NC(=O)[C@H](CC(C)C)NC(=O)[C@H](CC(C)C)NC(=O)OCc1ccccc1 [MG 119] (Cbz-Leu-Leu-[Abu]-aldehyde)	280	15	50	18	
COC(=O)C(=O)[C@H](Cc1ccccc1)NC(=O)[C@H](CC(C)C)NC(=O)[C@H](CC(C)C)NC(=O)OCc1ccccc1 [MG 113, Z-Leu-Leu-Phe-C(O)—OMe]	1300	45	690	< 4	
CCC[C@@H](C=O)NC(=O)[C@H](CC(C)C)NC(=O)[C@H](CC(C)C)NC(=O)OCc1ccccc1 [MG 115, Z-Leu-Leu-Nva-H] (Cbz-Leu-Leu-[Nva]-aldehyde)	78	10	21	10	
CCCC[C@@H](C=O)NC(=O)[C@H](CC(C)C)NC(=O)[C@H](CC(C)C)NC(C)=O [MG 101, Ac-Leu-Leu-Nle-H] (Ac-Leu-Leu-[Nle]-aldehyde)	1000	5	140	6	Ki [6]: 140 nM; Ki [7]: 7 µM; Ki [8]: 600 nM; Ki [9]: 5.7 µM; Ki [10]: 3 µM
CSCC[C@@H](C=O)NC(=O)[C@H](CC(C)C)NC(=O)[C@H](CC(C)C)NC(C)=O [MG 102, reference compound] (Ac-Leu-Leu-Met-aldehyde)	28000	120	1000	94	
CCOC(=O)C(=O)[C@H](Cc1ccccc1)NC(=O)[C@H](CC(C)C)NC(=O)[C@H](CC(C)C)NC(=O)OCc1ccccc1 [Z-Leu-Leu-Phe-COOEt]					Ki [9]: 53 µM
CC(C)C[C@H](NC(=O)OCc1ccccc1)C(=O)N[C@@H](CC(C)C)C(=O)NCC=O [MG 118] (Cbz-Leu-Leu-Gly-aldehyde)	28000	120	3800	94	
CC(C)C[C@H](NC(=O)OCc1ccccc1)C(=O)N[C@@H](CC(C)C)C(=O)N[C@@H](C)C=O [MG 111] (Cbz-Leu-Leu-Ala-aldehyde)	690	11	210	6	
Nc1ncnc2c1ncn2[C@@H]1O[C@H](COP(=O)(O)OP(=O)(O)OP(O)(O)=S)[C@@H](O)[C@H]1O [ATPγS]					effect on p60Tth processing in vitro [11]: inhibited
C#CC[C@@H](C=O)NC(=O)[C@H](CC(C)C)NC(=O)[C@H](CC(C)C)NC(=O)OCc1ccccc1 [MG 140] (Cbz-Leu-Leu-[Pra]-aldehyde)					Ki [12]: 28 nM
CC(C)C[C@H](NC(=O)OCc1ccccc1)C(=O)N[C@@H](CC(C)C)C(=O)N[C@H](C=O)Cc1ccccc1 [MG 110, Z-Leu-Leu-Phe-H] (Cbz-Leu-Leu-Phe-aldehyde)	180	62	48	100	Ki [9]: 0.46 µM
CCCC[C@@H](C=O)NC(=O)[C@H](CC(C)C)NC(=O)[C@H](CC(C)C)NC(=O)OCc1ccccc1 [MG 114, Z-Leu-Leu-Nle-H] (Cbz-Leu-Leu-[Nle]-aldehyde)	120	12	47	7	
CC(C)C[C@H](NC(=O)OCc1ccccc1)C(=O)N[C@@H](CC(C)C)C(=O)N[C@H](C=O)Cc1cc(I)c(O)c(I)c1 [MG 161] (Cbz-Leu-Leu-[Tyr(3,5-I2)]-aldehyde)					Ki [12]: 64 nM
CC(C)C[C@@H](C=O)NC(=O)[C@H](C)NC(=O)[C@H](Cc1cccc2ccccc12)NC(=O)OCc1ccccc1 [MG 168] (Cbz-[1Nal]-Ala-Leu-aldehyde)					Ki [12]: 0.49 nM
CSCC[C@@H](C=O)NC(=O)[C@H](CC(C)C)NC(=O)[C@H](CC(C)C)NC(C)=O [Ac-LLM-H, N-acetyl-Leu-Leu-methioninal] (Ac-Leu-Leu-Met-aldehyde)					Ki [9]: 33 µM
CC(C)C[C@H](NC(=O)OCc1ccccc1)C(=O)N[C@@H](CC(C)C)C(=O)N[C@H](C=O)CC(C)(C)C [MG 136] (Cbz-Leu-Leu-[tBuAla]-aldehyde)					Ki [12]: 1000 nM
CC(C)C[C@H](NC(=O)OCc1ccccc1)C(=O)N[C@@H](CC(C)C)C(=O)N[C@H](C=O)CCc1ccccc1 [MG 124] (Cbz-Leu-Leu-[hPhe]-aldehyde)					Ki [12]: 59 nM
CC(C)C[C@H](NC(=O)OCc1ccccc1)C(=O)N[C@@H](CC(C)C)C(=O)N[C@H](C=O)Cc1c[nH]c2ccccc12 [MG 151] (Cbz-Leu-Leu-Trp-aldehyde)					Ki [12]: 10 nM
